Read-outs that look alike come from different tables or passages of the source.
Key:
MV4;11 cells = assay: Cell viability assay (CellTiter-Glo) in MV4;11 cells, alone or with gilteritinib; format: cell-based; conditions: Homo sapiens, MV4-11, 72 h, MV4;11 cells, CellTiter-Glo, read-out: MV4
MOLM-13 cells = assay: Cell viability assay (CellTiter-Glo) in MOLM-13 cells, alone or with gilteritinib; format: cell-based; conditions: Homo sapiens, MOLM-13, 72 h, MOLM-13 cells, CellTiter-Glo
[1] = compound alone (without gilteritinib), three days, 11 IC50
[2] = with gilteritinib 10 nM, three days, 11 IC50 gilteritinib
[3] = compound alone (without gilteritinib), three days, read-out: MOLM-13 IC50
[4] = with gilteritinib 20 nM, three days, read-out: MOLM-13 IC50 gilteritinib
[5] = compound with gilteritinib 10 nM, three days, 11 IC50 gilteritinib
[6] = compound with gilteritinib 20 nM, three days, read-out: MOLM-13 IC50 gilteritinib

IC50 (MV4;11 cells; [1]) | IC50 (MV4;11 cells; [2]) | IC50 (MOLM-13 cells; [3]) | IC50 (MOLM-13 cells; [4]) | IC50 (MV4;11 cells; [5]) | IC50 (MOLM-13 cells; [6]) | IC50 (MV4;11 cells; with 10 nM gilteritinib, 3 days, 11 IC50 gilteritinib) | IC50 (MV4;11 cells; without gilteritinib, 3 days, 11 IC50) | IC50 (MOLM-13 cells; with 20 nM gilteritinib, 3 days, read-out: MOLM-13 IC50 gilteritinib) | IC50 (MOLM-13 cells; without gilteritinib, 3 days, read-out: MOLM-13 IC50) | SMILES
> 1000 nM | > 1000 nM | > 1000 nM | > 1000 nM |  |  |  |  |  |  | CN(c1ccc2[nH]ccc2n1)C1CCN(CC(=O)NCCNc2ccc3c(c2)C(=O)N(C2CCC(=O)NC2=O)C3=O)CC1 (centres unmarked) [GS-322, N-(2-((2-(2,6-Dioxopiperidin-3-yl)-1,3-dioxoisoindolin-5-yl)amino)ethyl)-2-(4-(methyl(1H-pyrrolo[3,2-b]pyridin-5-yl)amino)piperidin-1-yl)acetamide]
100 to 1000 nM |  | > 1000 nM |  | < 10 nM | < 10 nM |  |  |  |  | O=C1CCC(N2C(=O)c3ccc(NCCC[C@H]4C[C@H](n5cc(-c6nccc7ccncc67)c(C6CC6)n5)C4)cc3C2=O)C(=O)N1 (stereo partly drawn) [GS-630, 5-((3-(trans-3-(3-Cyclopropyl-4-(2,7-naphthyridin-1-yl)-1H-pyrazol-1-yl)cyclobutyl)propyl)amino)-2-(2,6-dioxopiperidin-3-yl)isoindoline-1,3-dione]
> 1000 nM | > 1000 nM | > 1000 nM | 100 to 1000 nM |  |  |  |  |  |  | CN(c1ccccc1)C1CN(C(=O)CCCCCNc2ccc3c(c2)C(=O)N(C2CCC(=O)NC2=O)C3=O)C1 (centres unmarked) [GS-337, 2-(2,6-Dioxopiperidin-3-yl)-5-((6-(3-(methyl(phenyl)amino)azetidin-1-yl)-6-oxohexyl)amino)isoindoline-1,3-dione]
> 1000 nM | > 1000 nM | > 1000 nM | > 1000 nM |  |  |  |  |  |  | O=C1CCC(N2C(=O)c3ccc(OCCCCCCn4cc(-c5cnc6ccccc6n5)cn4)cc3C2=O)C(=O)N1 (centres unmarked) [GS-354, 2-(2,6-Dioxopiperidin-3-yl)-5-((6-(4-(quinoxalin-2-yl)-1H-pyrazol-1-yl)hexyl)oxy)isoindoline-1,3-dione]
> 1000 nM | > 1000 nM | > 1000 nM | > 1000 nM |  |  |  |  |  |  | C[C@@H]1CC(n2cc(-c3cnc4ccccc4n3)cn2)C[C@H](C)N1C(=O)CCCCNc1ccc2c(c1)C(=O)N(C1CCC(=O)NC1=O)C2=O (stereo partly drawn) [GS-143, 5-((5-((2R,6S)-2,6-dimethyl-4-(4-(quinoxalin-2-yl)-1H-pyrazol-1-yl)piperidin-1-yl)-5-oxopentyl)amino)-2-(2,6-dioxopiperidin-3-yl)isoindoline-1,3-dione]
> 1000 nM | 100 to 1000 nM | > 1000 nM | 100 to 1000 nM |  |  |  |  |  |  | O=C1CCC(N2C(=O)c3ccc(NCCC[C@H]4C[C@H](n5cc(-c6ncccn6)cn5)C4)cc3C2=O)C(=O)N1 (stereo partly drawn) [GS-242, 2-(2,6-Dioxopiperidin-3-yl)-5-((3-(trans-3-(4-(pyrimidin-2-yl)-1H-pyrazol-1-yl)cyclobutyl)propyl)amino)isoindoline-1,3-dione]
 |  |  |  |  |  | > 10000 nM | > 10000 nM | 86 nM | > 10000 nM | Cc1ccccc1C(=O)N1CCN(C(=O)CCCCCNc2ccc3c(c2)C(=O)N(C2CCC(=O)NC2=O)C3=O)CC1 (centres unmarked) [GS-016, 2-(2,6-Dioxopiperidin-3-yl)-5-((6-(4-(2-methylbenzoyl)piperazin-1-yl)-6-oxohexyl)amino)isoindoline-1,3-dione]
> 1000 nM | > 1000 nM | > 1000 nM | > 1000 nM |  |  |  |  |  |  | CN1CCN(c2ccc(-c3cn([C@H]4C[C@H](CNc5ccc6c(c5)C(=O)N(C5CCC(=O)NC5=O)C6=O)C4)nc3C3CC3)nc2)CC1 (stereo partly drawn) [GS-298, 5-(((trans-3-(3-Cyclopropyl-4-(5-(4-methylpiperazin-1-yl)pyridin-2-yl)-1H-pyrazol-1-yl)cyclobutyl)methyl)amino)-2-(2,6-dioxopiperidin-3-yl)isoindoline-1,3-dione]
> 1000 nM | 100 to 1000 nM | > 1000 nM | 10 to 100 nM |  |  |  |  |  |  | O=C1CCC(N2C(=O)c3ccc(NCCOCCC(=O)N4CCC(n5cc(-c6cnc7ccccc7n6)cn5)CC4)cc3C2=O)C(=O)N1 (centres unmarked) [GS-324, 2-(2,6-Dioxopiperidin-3-yl)-5-((2-(3-oxo-3-(4-(4-(quinoxalin-2-yl)-1H-pyrazol-1-yl)piperidin-1-yl)propoxy)ethyl)amino)isoindoline-1,3-dione]
10 to 100 nM | < 10 nM | 10 to 100 nM | < 10 nM |  |  |  |  |  |  | O=C1CCC(N2C(=O)c3ccc(NCCC[C@H]4C[C@H](n5cc(-c6cnc7cc(N8CCNCC8)ccc7n6)cn5)C4)cc3C2=O)C(=O)N1 (stereo partly drawn) [GS-401, 2-(2,6-Dioxopiperidin-3-yl)-5-((3-(trans-3-(4-(6-(piperazin-1-yl)quinoxalin-2-yl)-1H-pyrazol-1-yl)cyclobutyl)propyl)amino)isoindoline-1,3-dione]
100 to 1000 nM |  | > 1000 nM |  | 10 to 100 nM | 10 to 100 nM |  |  |  |  | O=C1CCC(N2C(=O)c3ccc(NC[C@H]4C[C@H](n5cc(-c6ccc(Cl)cc6)c(C6CC6)n5)C4)cc3C2=O)C(=O)N1 (stereo partly drawn) [GS-456, 5-(((trans-3-(4-(4-chlorophenyl)-3-cyclopropyl-1H-pyrazol-1-yl)cyclobutyl)methyl)amino)-2-(2,6-dioxopiperidin-3-yl)isoindoline-1,3-dione]
10 to 100 nM |  | 10 to 100 nM |  | < 10 nM | < 10 nM |  |  |  |  | O=C1CCC(N2C(=O)c3ccc(NCCCCCCn4cc(-c5cnc6ccc(N7CCOCC7)cc6n5)cn4)cc3C2=O)C(=O)N1 (centres unmarked) [GS-530, 2-(2,6-Dioxopiperidin-3-yl)-5-((6-(4-(7-morpholinoquinoxalin-2-yl)-1H-pyrazol-1-yl)hexyl)amino)isoindoline-1,3-dione]
> 1000 nM |  | > 1000 nM |  | > 1000 nM | > 1000 nM |  |  |  |  | O=C1CCC(N2C(=O)c3ccc(NC[C@H]4C[C@H](n5cc(N6CCC(O)CC6)c(C6CC6)n5)C4)cc3C2=O)C(=O)N1 (stereo partly drawn) [GS-452, 5-(((trans-3-(3-cyclopropyl-4-(4-hydroxypiperidin-1-yl)-1H-pyrazol-1-yl)cyclobutyl)methyl)amino)-2-(2,6-dioxopiperidin-3-yl)isoindoline-1,3-dione]
> 1000 nM | > 1000 nM | > 1000 nM | > 1000 nM |  |  |  |  |  |  | O=C1CCC(N2Cc3c(Nc4ccnc(N5CCC(N6CCC(n7cc(-c8cnc9ccccc9n8)cn7)CC6)C5)n4)cccc3C2=O)C(=O)N1 (centres unmarked) [GS-074, 3-(1-Oxo-4-((2-(3-(4-(4-(quinoxalin-2-yl)-1H-pyrazol-1-yl)piperidin-1-yl)pyrrolidin-1-yl)pyrimidin-4-yl)amino)isoindolin-2-yl)piperidine-2,6-dione]
10 to 100 nM | 10 to 100 nM | 100 to 1000 nM | 10 to 100 nM |  |  |  |  |  |  | O=C(Cn1cc(-c2cnc3ccccc3n2)c(C2CC2)n1)NCc1ccc2c(c1)C(=O)N(C1CCC(=O)NC1=O)C2=O (centres unmarked) [GS-271, 2-(3-Cyclopropyl-4-(quinoxalin-2-yl)-1H-pyrazol-1-yl)-N-((2-(2,6-dioxopiperidin-3-yl)-1,3-dioxoisoindolin-5-yl)methyl)acetamide]
> 1000 nM | > 1000 nM | > 1000 nM | 100 to 1000 nM |  |  |  |  |  |  | O=C1CCC(N2C(=O)c3ccc(NC[C@H]4C[C@@H](n5cc(-c6cnc7ccccc7n6)cn5)C4)cc3C2=O)C(=O)N1 (stereo partly drawn) [GS-179, 2-(2,6-Dioxopiperidin-3-yl)-5-(((cis-3-(4-(quinoxalin-2-yl)-1H-pyrazol-1-yl)cyclobutyl)methyl)amino)isoindoline-1,3-dione]
10 to 100 nM | < 10 nM | 100 to 1000 nM | 10 to 100 nM |  |  |  |  |  |  | O=C1CCC(N2C(=O)c3ccc(NCCCCCC(=O)N4CCC(n5cc(N6CCCCC6)cn5)CC4)cc3C2=O)C(=O)N1 (centres unmarked) [GS-048, 2-(2,6-Dioxopiperidin-3-yl)-5-((6-oxo-6-(4-(4-(piperidin-1-yl)-1H-pyrazol-1-yl)piperidin-1-yl)hexyl)amino)isoindoline-1,3-dione]
> 1000 nM | > 1000 nM | > 1000 nM | > 1000 nM |  |  |  |  |  |  | O=C1CCC(N2C(=O)c3ccc(CNCCCn4cc(-c5cnc6ccccc6n5)c(C5CC5)n4)cc3C2=O)C(=O)N1 (centres unmarked) [GS-313, 5-(((3-(3-Cyclopropyl-4-(quinoxalin-2-yl)-1H-pyrazol-1-yl)propyl)amino)methyl)-2-(2,6-dioxopiperidin-3-yl)isoindoline-1,3-dione]
100 to 1000 nM | 10 to 100 nM | > 1000 nM | 100 to 1000 nM |  |  |  |  |  |  | O=C(CC12CC(C(=O)N3CCC(n4cc(-c5cnc6ccccc6n5)cn4)CC3)(C1)C2)NCc1ccc2c(c1)CN(C1CCC(=O)NC1=O)C2=O (centres unmarked) [GS-121, N-((2-(2,6-dioxopiperidin-3-yl)-1-oxoisoindolin-5-yl)methyl)-2-(3-(4-(4-(quinoxalin-2-yl)-1H-pyrazol-1-yl)piperidine-1-carbonyl)bicyclo[1.1.1]pentan-1-yl)acetamide]
> 1000 nM | > 1000 nM | > 1000 nM | > 1000 nM |  |  |  |  |  |  | O=C1CCC(N2Cc3c(Nc4ccnc(Nc5cccc(-n6cc(-c7cnc8ccccc8n7)cn6)c5)n4)cccc3C2=O)C(=O)N1 (centres unmarked) [GS-084, 3-(1-Oxo-4-((2-((3-(4-(quinoxalin-2-yl)-1H-pyrazol-1-yl)phenyl)amino)pyrimidin-4-yl)amino)isoindolin-2-yl)piperidine-2,6-dione]

From patent US20240050428A1 (Cullgen (Shanghai), Inc., priority 2020, published 2024)
